Assay results from US11578055B2, “Triazacyclododecansulfonamide (“TCD”)-based protein secretion inhibitors” (KEZAR LIFE SCIENCES, priority 2018, dated 2023).

Columns and labels:
[1] = test system: PD1 signal sequence plus 10 amino acids fused to Gaussia Luciferase (PD1-ss+10aa/Gaussia Luciferase); assay: Dox Induced PD1-ss-Gluc Assay; type: cell-based; details: 24 hr, Dox inducible, 293FRT/TO cells; read-out: 24 hr Dox Inducible PD1ssGluc 293FRT/TO: Mean IC50
Method in brief: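 Stable Flp-In 293 T-REx line expressing the fusion under tetracycline-inducible control, plated the day before assay. Compound dilutions added with doxycycline and incubated at 37 °C, 5% CO2; unspecified stereocentres mean data refer to stereoisomer mixtures.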

[2] = test system: full length TNFα (amino acids 1-233) fused to Gaussia Luciferase; assay: Dox Induced TNFα-FL-Gluc Assay; type: cell-based; details: 24 hr, Dox inducible, 293FRT/TO cells; read-out: 24 hr Dox Inducible TNFaFLGluc 293FRT/TO: Mean IC50
Method in brief: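 Stable Flp-In 293 T-REx line expressing doxycycline-inducible full-length TNFα fused to Gaussia luciferase; cells plated the day before, then treated with compound dilutions in doxycycline-containing medium at 37° C, 5% CO2. Unspecified stereocentres mean stereoisomer mixtures were tested.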

[3] = test system: full length IL-2 (amino acids 1-153) fused to Gaussia Luciferase; assay: Dox Induced IL2-FL-Gluc Assay; type: cell-based; details: 24 hr, Dox inducible, 293FRT/TO cells; read-out: 24 hr Dox Inducible IL2FLGluc 293FRT/TO: Mean IC50
Method in brief: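 Flp-In 293 T-REx stable line expressing full-length IL-2 (aa 1-153) with C-terminal Gaussia luciferase fusion under doxycycline-inducible control. Cells plated the day before; compound dilutions added in DMSO/media containing doxycycline, incubated at 37° C, 5% CO2.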

[4] = test system: HER3 signal sequence plus 4 amino acids fused to Gaussia Luciferase (HER3-ss+4aa/Gaussia Luciferase); assay: Dox Induced HER3-ss-Gluc Assay; type: cell-based; details: 24 hr, doxycycline induced, Flp-In 293 T-REx cells; read-out: 24 hr Dox Inducible Her3(ss + 4) Gluc 293FRT/TO: Mean 1050
Description: FIp-In 293 T-REx™ cells were transfected with pcDNA™5/FRT/TO plasmid inserted with cDNA encoding Gaussia Luciferase fused to the 3′ end of cDNA encoding HER3 signal sequence plus 4 amino acids (N-[…]-C) (SEQ ID NO: 2). Transfected cells were selected for resistance to the selectable markers Hygromycin and Blasticidin to create a stable cell line that contained the HER3-ss+4aa/Gaussia Luciferase cDNA insert whose expression was regulated under the T-REx™ system. The day before assay, cells were trypsinized and plated in 384-well tissue culture plates. The next day, compound dilutions in DMSO/media containing doxycycline were added to the wells and incubated at 37° C., 5% CO2.
For chemical structures that include one or more stereoisomers, but are illustrated without indicating stereochemistry, the assay data refers to a mixture of stereoisomers.

[5] = test system: multiple myeloma cell line NCl-H929; assay: H929 Cell Viability Assay; type: cell-based, human; details: Homo sapiens, NCI-H929, 48 h, H929, Celltiter-Glo
Method in brief: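 NCI-H929 myeloma cells in RPMI 1640 with 10% FBS were treated with compound dilutions for 48 h at 37 °C, and viability was then read by CellTiter-Glo luminescence. Compounds drawn without stereochemistry were tested as stereoisomer mixtures.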

[6] = test system: multiple myeloma cell line U266B1; assay: U266 Cell Viability Assay; type: cell-based, human; details: Homo sapiens, U-266; 48 hr, U266, Celltiter-Glo
Method in brief: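 U266B1 myeloma cells in RPMI 1640 with 10% FBS were treated with compound dilutions for 48 h at 37° C, 5% CO2. Viability was read as CellTiter-Glo luminescence. Data for structures drawn without stereochemistry refer to stereoisomer mixtures.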

[7] = In Vitro Microsome Stability Assay (human); type: in vitro ADME; details: human liver microsomes, 30 min w/ NADPH
Method in brief: (§1)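 Species liver microsomes in potassium phosphate buffer were preincubated at 37 °C for 3–5 min with test compound (added from 0.25 mM DMSO stock), then started with NADPH. Samples at 0 and 30 min were quenched with acetonitrile containing internal standard and analysed by LC-MS/MS; % remaining at 30 min used analyte/IS AUC ratios relative to t=0.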

[8] = In Vitro Microsome Stability Assay (mouse); type: in vitro ADME; details: mouse liver microsomes, 30 min w/ NADPH
Method in brief: as §1

[9] = In Vitro Microsome Stability Assay (rat); type: in vitro ADME; details: rat liver microsomes, 30 min w/ NADPH
Method in brief: as §1

[10] = In Vitro Microsome Stability Assay (monkey); type: in vitro ADME; details: monkey liver microsomes, 30 min w/ NADPH
Method in brief: as §1

Structure (SMILES) | IC50 [1] [nM] | IC50 [2] [nM] | IC50 [3] [nM] | IC50 [4] [nM] | EC50 [5] [nM] | EC50 [6] [nM] | Liver Microsome Stability-% Left after 30 min w/ NADPH (%) Human [7] [%] | Liver Microsome Stability-% Left after 30 min w/ NADPH (%) Mouse [8] [%] | Liver Microsome Stability-% Left after 30 min w/ NADPH (%) Rat [9] [%] | Liver Microsome Stability-% Left after 30 min w/ NADPH (%) Monkey [10] [%]
C[C@H]1CN(S(=O)(=O)c2ccc(N(C)C)cc2)CCCN(CC(C)(C)C)CCCN(S(=O)(=O)N2CCc3cc(Cl)ccc3C2)C1 [A107, 4-{[(3S)-5-[(6-chloro-1,2,3,4-tetrahydroisoquinolin-2-yl)sulfonyl]-9-(2,2-dimethylpropyl)-3-methyl-1,5,9-triazacyclododecan-1-yl]sulfonyl}-N,N-dimethylaniline] | 26.1 | 609 | 73 | 44.2 | 1180 | > 25000 | 83.9 | 16.1 | 19.3 | 25.0
C[C@H]1CN(S(=O)(=O)c2ccc(N(C)C)cc2)CCCN(CCC2CCCC2)CCCN(S(=O)(=O)N2CCc3cc(Cl)ccc3C2)C1 [A120, 4-{[(3S)-5-[(6-chloro-1,2,3,4-tetrahydroisoquinolin-2-yl)sulfonyl]-9-(2-cyclopentylethyl)-3-methyl-1,5,9-triazacyclododecan-1-yl]sulfonyl}-N,N-dimethylaniline] | 15.6 | 239 | 27.3 | 31.4 | 672 | > 25000 | 4.78 | 19.2 | 28.5 | 16.3
C[C@H]1CN(S(=O)(=O)c2ccc(N(C)C)cc2)CCCNCCCN(S(=O)(=O)N2CCc3cc(Cl)ccc3C2)C1 [A183, 4-{[(3S)-5-[(6-chloro-1,2,3,4-tetrahydroisoquinolin-2-yl)sulfonyl]-3-methyl-1,5,9-triazacyclododecan-1-yl]sulfonyl}-N,N-dimethylaniline] | 1440 |  | 2520 | 2150 | 6120 | > 25000 | 10.1 | 7.39 | 3.17 | 0.75
COc1cc(F)cc(N2CCN(S(=O)(=O)N3CCCN(CC4CCCCC4)CCCN(S(=O)(=O)c4ccc(N(C)C)cc4)C[C@H](C)C3)C[C@H]2C)c1 [A196] | 31 | 1470 | 105 | 78.2 | > 25000 | > 25000 |  |  |  | 
C[C@@H]1CN(CC2CCCCC2)C[C@H](C)CN(S(=O)(=O)c2ccc(N(C)C)cc2)C[C@H](C)CN(S(=O)(=O)N2CCc3cc(Cl)ccc3C2)C1 [B16, 4-{[(3S,7R,11S)-5-[(6-chloro-1,2,3,4-tetrahydroisoquinolin-2-yl]sulfonyl]-9-(cyclohexylmethyl)-3,7,11-trimethyl-1,5,9-triazacyclododecan-1-yl]sulfonyl}-N,N-dimethylaniline] | 449 | 13900 | 826 |  | > 25000 | > 25000 | 55.2 | 58.4 | 72.3 | 44.7
C[C@H]1CN(S(=O)(=O)c2ccc(N(C)C)cc2)CCCCN(S(=O)(=O)N2CCc3cc(Cl)ccc3C2)C1 [B21] | 3950 | > 25000 | > 25000 |  | > 25000 | > 25000 | 0.17 | 0.16 | 0.06 | 0.03
